Test results: patent publication US20150118179A1, “BIOCIDAL COMPOUNDS AND METHODS FOR USING SAME” (UNIVERSITY OF MANITOBA, priority 2012, published 2015)
Where two headings read alike, the source gives them in different places.

Key:
[1] = system: P. aeruginosa (73104); experiment: Antibacterial assessment in PBS suspension (Example 19); format: cell-based, Pseudomonas aeruginosa; details: [Cl+] 15 ppm, inoculum 10^5 cfu/ml
Method: (§1) Pseudomonas aeruginosa (P. aeruginosa) (#73104, Gram-negative) and Staphylococcus aureus (MRSA) (#40065, Gram-positive) were used as the model microorganism to challenge the antibacterial function of the compounds. It should be noticed that both P. aeruginosa and MRSA are biosafety level 2 microorganisms and potentially biohazardous, therefore the following antibacterial assessments were carried out in a Biological Safety Level 2 cabinet and safety precautions were strictly followed.
(§2) Tryptone Soya agar plates were used as platforms for bacterial cell growth and were prepared following the instructions on the bottle (CM 0131, OXOID). The prepared agar was kept at 65° C. after being autoclaved and the resulting agar plates were stored in fridge at 3-4° C. All glassware and related materials were subjected to autoclave or disinfection with 70% ethanol prior to use.
(§3) Several colonies of each bacteria type were suspended in broth solutions (cation-supplemented Mueller-Hinton broth for P. aeruginosa and tryptic soy broth for MRSA) whose concentrations were equivalent to a 0.5 McFarland standard (1×10^8 cfu/ml). This suspension was then diluted 1:100 and 20 μL of the diluted suspension was further diluted in 60 ml of cation-supplemented Mueller-Hinton broth or tryptic soy broth. Then the prepared bacteria inoculums were incubated overnight at 37° C. to obtain logarithmic-phase cultures. For each microbial study, 0.2 ml (0.02 ml for P. aeruginosa) of the cell suspension was diluted in 19.8 mL (19.98 ml for P. aeruginosa) of phosphate-buffered Saline (PBS, 0.1 M Sodium phosphate monobasic, 0.1 M Sodium phosphate dibasic, pH 7.4) to give a cell concentration of 10^6-10^7 cfu/mL (10^5 cfu/ml for P. aeruginosa). 30 μL of each synthesized compound solution (0.28 N stock solution) were added into the cell suspension to achieve a [Cl^+] of 15 ppm and start timing instantly. The mixture was vortexed several times during the reaction. After contact for the desired time intervals, 1.0 ml cell suspension was withdrawn and added to 1.0 ml of 0.02 N sodium thiosulfate and/or Letheen (1% lecithin, 10% peptone and 0.5% tween 80 dissolved in PBS at pH 7.4) to quench the bactericidal effect. The quenched suspension was then serially diluted (10 times less concentrated than the previous one) and 100 μL of each dilution was placed onto agar plates. The same procedure was applied to the blanks as controls with the same matrices but with no synthesized compounds added. Bacterial colonies on the agar plates were enumerated after being incubated at 37° C. for 22 hours.
(§4) Percentage reduction of bacteria (%)=(A−B)/A×100
(§5) Where A is the number of bacterial colonies in the control (cfu/mL), and B is the number of bacteria colonies under the effect of the synthesized compounds.

[2] = system: methicillin resistant Staphylococcus aureus (MRSA 40065); format: cell-based; details: [Cl+] 15 ppm, inoculum 10^6 cfu/ml
Method: as §1, §2, §3, §4, §5

SMILES | Bacteria Reduction log10 ([1]; Table 10, contact 3 min) [log10] | Bacteria reduction % ([1]; Table 10, contact 3 min) [%] | Bacteria Reduction log10 ([1]; Table 10, contact 10 min) [log10] | Bacteria reduction % ([1]; Table 10, contact 10 min) [%] | Bacteria Reduction log10 ([1]; Table 10, contact 20 min) [log10] | Bacteria reduction % ([1]; Table 10, contact 20 min) [%] | Bacteria Reduction log10 ([1]; Table 10, contact 30 min) [log10] | Bacteria reduction % ([1]; Table 10, contact 30 min) [%] | Bacteria Reduction log10 ([1]; Table 10, contact 60 min) [log10] | Bacteria reduction % ([1]; Table 10, contact 60 min) [%] | Bacteria Reduction log10 ([2]; Table 10, contact 1 min) [log10] | Bacteria reduction % ([2]; Table 10, contact 1 min) [%] | Bacteria Reduction log10 ([2]; Table 10, contact 3 min) [log10] | Bacteria reduction % ([2]; Table 10, contact 3 min) [%] | Bacteria Reduction log10 ([2]; Table 10, contact 5 min) [log10] | Bacteria reduction % ([2]; Table 10, contact 5 min) | Bacteria Reduction log10 ([2]; Table 10, contact 10 min) [log10] | Bacteria reduction % ([2]; Table 10, contact 10 min) [%] | Bacteria Reduction log10 ([2]; Table 10, contact 60 min) [log10] | Bacteria reduction % ([2]; Table 10, contact 60 min) [%]
CCCCCC[N+](C)(C)CCCN1C(=O)N(Cl)C(C)(C)C1=O.[Cl-] [Compound 6] | 0.24 | 42.7 | 0.30 | 49.3 | 0.50 | 68.6 | 1.52 | 97.0 | 5.80 | 100 | 0.66 | 78.3 | 0.67 | 78.9 | 0.76 | 82.8% | 1.00 | 89.3 | 2.11 | 99.2
CCCCCCCCCCCC[N+](C)(C)CCCN1C(=O)NC(C)(C)C1=O [Compound 7] | 5.80 | 100 | 5.80 | 100 | 5.80 | 100 | 5.80 | 100 | 5.80 | 100 | 0 | 0 | 0 | 0 | 0.85 | 85.6. % | 2.59 | 99.7 | 6.26 | 100
CCCCCCCCCCCC[N+](C)(C)CCCN1C(=O)N(Cl)C(C)(C)C1=O.[Cl-] [Compound 8] | 5.80 | 100 | 5.80 | 100 | 5.80 | 100 | 5.80 | 21.4 | 5.80 | 100 | 0.13 | 26.1 | 6.26 | 100 | 6.26 | 100% | 6.26 | 100 | 6.26 | 100
CC1(C)C(=O)N(CC[N+](C)(C)C)C(=O)N1Cl.[Cl-] [Compound 10] |  |  | 0.35 | 55.1 | 5.27 | 100 | 5.27 | 100 | 5.27 | 100 | 0.74 | 81.7 | 0.63 | 76.7 | 0.50 | 68.2% | 0.81 | 84.5 | 1.33 | 95.3
